Measurements: ChEMBL document CHEMBL1201862, “PubChem BioAssay data set” (2004)
Activity calls are given as the source filed them.

Experiments:
[1] = molecular target: T1, Sentrin-specific protease 8 (Homo sapiens, UniProt Q96LD8); assay type: functional;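 further: luminescence read-out of SENP8 inhibition, dose-response confirmation following an ultra-high-throughput screen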
T1 sequence (Q96LD8 whole entry): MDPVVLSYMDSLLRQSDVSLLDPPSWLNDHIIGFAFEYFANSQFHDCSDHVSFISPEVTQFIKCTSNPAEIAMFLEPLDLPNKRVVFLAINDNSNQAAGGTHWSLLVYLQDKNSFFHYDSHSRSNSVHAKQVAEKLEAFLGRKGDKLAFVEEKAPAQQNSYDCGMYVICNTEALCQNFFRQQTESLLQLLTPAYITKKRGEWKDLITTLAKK

[2] = molecular target: T2, Sentrin-specific protease 6 (Homo sapiens, UniProt Q9GZR1); assay type: functional;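 further: Luminescence-based dose-response confirmatory assay of SENP6 inhibition, following up an ultra-high-throughput screen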
T2 sequence (Q9GZR1 whole entry): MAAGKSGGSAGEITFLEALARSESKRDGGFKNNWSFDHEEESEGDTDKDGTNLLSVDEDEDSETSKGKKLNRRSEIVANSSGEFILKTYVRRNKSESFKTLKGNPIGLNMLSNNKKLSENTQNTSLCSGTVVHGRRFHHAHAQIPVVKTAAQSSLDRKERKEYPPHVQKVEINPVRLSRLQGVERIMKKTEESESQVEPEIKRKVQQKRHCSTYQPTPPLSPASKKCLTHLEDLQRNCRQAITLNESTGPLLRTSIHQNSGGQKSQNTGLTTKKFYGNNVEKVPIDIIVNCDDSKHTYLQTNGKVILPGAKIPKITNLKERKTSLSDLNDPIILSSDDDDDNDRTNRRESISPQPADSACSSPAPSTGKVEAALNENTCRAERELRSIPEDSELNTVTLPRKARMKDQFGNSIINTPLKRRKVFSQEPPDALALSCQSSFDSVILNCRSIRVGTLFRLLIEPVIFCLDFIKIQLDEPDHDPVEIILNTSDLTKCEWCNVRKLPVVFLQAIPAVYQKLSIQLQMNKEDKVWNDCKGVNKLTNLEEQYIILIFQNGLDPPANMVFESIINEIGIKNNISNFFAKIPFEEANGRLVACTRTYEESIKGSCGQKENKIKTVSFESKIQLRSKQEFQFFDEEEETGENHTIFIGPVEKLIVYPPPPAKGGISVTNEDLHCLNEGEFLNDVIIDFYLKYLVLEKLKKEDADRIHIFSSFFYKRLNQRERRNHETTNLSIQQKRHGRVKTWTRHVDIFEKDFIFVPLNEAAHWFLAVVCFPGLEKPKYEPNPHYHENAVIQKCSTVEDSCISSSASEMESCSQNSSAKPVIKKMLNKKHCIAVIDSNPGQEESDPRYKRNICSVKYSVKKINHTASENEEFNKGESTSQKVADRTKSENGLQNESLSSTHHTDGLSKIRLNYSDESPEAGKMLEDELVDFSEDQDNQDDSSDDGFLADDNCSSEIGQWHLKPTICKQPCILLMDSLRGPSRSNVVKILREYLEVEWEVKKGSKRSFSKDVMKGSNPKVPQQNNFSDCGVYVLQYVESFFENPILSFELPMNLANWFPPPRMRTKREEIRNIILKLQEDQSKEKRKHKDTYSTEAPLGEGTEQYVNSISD

[3] = molecular target: T3, Sentrin-specific protease 7 (Homo sapiens, UniProt Q9BQF6); assay type: functional;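 further: Luminescence-based dose-response confirmation of ultra-high-throughput screening hits, measuring inhibition of SENP7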
T3 sequence (Q9BQF6 whole entry): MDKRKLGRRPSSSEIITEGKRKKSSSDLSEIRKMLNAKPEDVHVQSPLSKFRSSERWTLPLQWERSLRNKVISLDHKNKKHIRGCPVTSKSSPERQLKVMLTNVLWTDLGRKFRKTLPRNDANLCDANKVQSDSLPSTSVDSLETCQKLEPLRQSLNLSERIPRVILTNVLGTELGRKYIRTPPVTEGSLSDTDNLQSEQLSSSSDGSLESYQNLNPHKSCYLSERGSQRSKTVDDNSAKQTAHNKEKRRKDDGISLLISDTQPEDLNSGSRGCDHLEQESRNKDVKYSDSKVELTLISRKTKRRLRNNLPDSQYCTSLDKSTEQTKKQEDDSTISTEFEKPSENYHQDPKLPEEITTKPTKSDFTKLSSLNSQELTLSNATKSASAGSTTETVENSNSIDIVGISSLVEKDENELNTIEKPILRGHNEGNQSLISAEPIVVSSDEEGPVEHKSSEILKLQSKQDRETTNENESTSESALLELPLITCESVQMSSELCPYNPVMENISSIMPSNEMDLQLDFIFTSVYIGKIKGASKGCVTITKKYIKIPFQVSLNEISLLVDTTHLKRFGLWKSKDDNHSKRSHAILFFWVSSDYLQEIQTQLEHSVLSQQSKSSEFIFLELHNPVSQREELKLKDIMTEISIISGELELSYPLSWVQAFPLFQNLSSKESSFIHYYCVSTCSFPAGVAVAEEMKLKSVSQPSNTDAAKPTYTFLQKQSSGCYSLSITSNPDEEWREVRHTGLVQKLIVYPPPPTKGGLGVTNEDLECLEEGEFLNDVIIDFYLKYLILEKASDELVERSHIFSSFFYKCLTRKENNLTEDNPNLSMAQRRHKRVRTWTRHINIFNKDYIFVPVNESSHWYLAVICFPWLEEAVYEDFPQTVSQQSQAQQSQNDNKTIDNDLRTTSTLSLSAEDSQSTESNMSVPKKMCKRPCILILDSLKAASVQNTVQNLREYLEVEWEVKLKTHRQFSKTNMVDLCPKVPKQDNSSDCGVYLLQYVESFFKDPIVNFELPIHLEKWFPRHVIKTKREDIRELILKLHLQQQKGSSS

Caspase-3 = molecular target: T4, Caspase-3 (Homo sapiens, UniProt P42574); assay type: functional;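 further: Dose-response selectivity test against caspase-3 for candidate inhibitors of sentrin-specific proteases (SENPs)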
T4 sequence (P42574 whole entry): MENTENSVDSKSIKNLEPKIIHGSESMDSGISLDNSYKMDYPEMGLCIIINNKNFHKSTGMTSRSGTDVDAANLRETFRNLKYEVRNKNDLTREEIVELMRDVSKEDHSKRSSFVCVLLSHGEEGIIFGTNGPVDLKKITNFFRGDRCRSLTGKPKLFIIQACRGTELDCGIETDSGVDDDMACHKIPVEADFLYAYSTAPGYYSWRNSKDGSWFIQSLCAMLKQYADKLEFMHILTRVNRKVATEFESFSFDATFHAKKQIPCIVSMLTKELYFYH

CHO = experiment: cytotoxicity in TLR9-MyD88 CHO cells, dose response, cytotoxicity control for TLR9-MyD88 binding inhibitor project, cell-based, luminescence (AID 588339); assay type: functional, hamster; settings: Cricetulus griseus;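 further: CHO cells stably coexpressing TLR9 and MyD88 fusions from primary screen; compound exposure lasted 48 hours before viability readout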
Beta Lactamase = Beta Lactamase (Pseudomonas aeruginosa, UniProt Q932Y6); experiment: beta-lactamase reporter inhibitor potency, dose response, artefact control for TLR9-MyD88 binding inhibitor project, BLA reporter cells, FRET fluorescence (AID 588341); assay type: cell-based;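 further: cell based assay in CHO-K1 cells stably expressing beta-lactamase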
[4] = molecular target: Luciferin 4-monooxygenase (Photinus pyralis, UniProt P08659); experiment: firefly luciferase enzyme inhibitors, dose response, biochemical, luminescence (AID 1891)
[5] = molecular target: Endoplasmic reticulum aminopeptidase 1 (Homo sapiens, UniProt Q9NZ08); experiment: ERAP1 aminopeptidase inhibitors, dose response, biochemical, cherry-pick, set 2, plate reader (AID 743314)
[6] = Luminescence Cell-Based Dose Confirmation HTS to Identify Inhibitors of Platelet Dense Granule Release. [Related pubchem assays: 1663 (Primary HTS), 1678 (Summary of Project)]; assay type: functional
HEK293 = experiment: cytotoxicity in HEK293T NF-kB-Luc cells, SAR follow-up, cytotoxicity control for NF-kB activator project, cell-based, resazurin fluorescence (AID 493251); assay type: functional; settings: Homo sapiens
[7] = molecular target: T5, Apoptotic protease-activating factor 1 (Homo sapiens, UniProt O14727); assay type: functional
T5 sequence (O14727 whole entry): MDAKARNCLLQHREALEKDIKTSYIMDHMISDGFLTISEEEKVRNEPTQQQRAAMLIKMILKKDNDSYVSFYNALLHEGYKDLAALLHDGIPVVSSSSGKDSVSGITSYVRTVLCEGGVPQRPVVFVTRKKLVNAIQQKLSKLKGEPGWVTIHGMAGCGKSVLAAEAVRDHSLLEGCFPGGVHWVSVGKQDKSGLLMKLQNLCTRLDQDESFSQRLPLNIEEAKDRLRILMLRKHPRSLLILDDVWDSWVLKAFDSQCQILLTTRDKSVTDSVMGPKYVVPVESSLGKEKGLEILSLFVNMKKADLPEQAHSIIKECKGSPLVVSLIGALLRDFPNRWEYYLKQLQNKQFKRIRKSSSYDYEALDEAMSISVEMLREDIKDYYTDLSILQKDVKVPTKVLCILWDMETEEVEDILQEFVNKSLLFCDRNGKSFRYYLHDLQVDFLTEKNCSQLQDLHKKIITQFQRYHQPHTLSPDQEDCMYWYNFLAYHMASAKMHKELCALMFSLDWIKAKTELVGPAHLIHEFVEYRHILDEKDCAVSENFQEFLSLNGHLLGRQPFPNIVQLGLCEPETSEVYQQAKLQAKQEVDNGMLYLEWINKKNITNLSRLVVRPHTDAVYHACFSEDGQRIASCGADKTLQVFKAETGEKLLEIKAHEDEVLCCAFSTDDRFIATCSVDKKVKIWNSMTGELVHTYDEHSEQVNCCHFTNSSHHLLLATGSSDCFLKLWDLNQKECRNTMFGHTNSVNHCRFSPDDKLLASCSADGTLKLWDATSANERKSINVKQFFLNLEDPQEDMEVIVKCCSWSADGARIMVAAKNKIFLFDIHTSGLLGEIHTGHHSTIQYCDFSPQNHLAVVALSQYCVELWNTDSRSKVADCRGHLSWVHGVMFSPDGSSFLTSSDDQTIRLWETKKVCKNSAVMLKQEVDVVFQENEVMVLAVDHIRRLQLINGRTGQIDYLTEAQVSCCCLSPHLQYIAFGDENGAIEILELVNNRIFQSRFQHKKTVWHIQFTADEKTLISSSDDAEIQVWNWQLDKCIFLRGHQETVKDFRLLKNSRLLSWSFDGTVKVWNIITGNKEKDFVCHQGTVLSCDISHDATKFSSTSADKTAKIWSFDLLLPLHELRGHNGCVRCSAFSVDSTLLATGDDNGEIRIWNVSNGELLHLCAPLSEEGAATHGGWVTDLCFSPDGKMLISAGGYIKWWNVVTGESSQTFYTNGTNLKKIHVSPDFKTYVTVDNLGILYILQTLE

Beta Lactamase, sequence (Q932Y6 whole entry): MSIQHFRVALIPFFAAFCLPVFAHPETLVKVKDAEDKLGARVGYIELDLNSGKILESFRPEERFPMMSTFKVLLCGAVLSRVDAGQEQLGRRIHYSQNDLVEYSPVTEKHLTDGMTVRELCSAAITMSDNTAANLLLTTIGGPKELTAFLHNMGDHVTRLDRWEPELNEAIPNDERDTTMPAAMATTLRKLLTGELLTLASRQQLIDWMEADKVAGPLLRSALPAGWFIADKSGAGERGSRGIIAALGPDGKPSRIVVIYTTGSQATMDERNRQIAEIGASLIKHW
Luciferin 4-monooxygenase, sequence (P08659 whole entry): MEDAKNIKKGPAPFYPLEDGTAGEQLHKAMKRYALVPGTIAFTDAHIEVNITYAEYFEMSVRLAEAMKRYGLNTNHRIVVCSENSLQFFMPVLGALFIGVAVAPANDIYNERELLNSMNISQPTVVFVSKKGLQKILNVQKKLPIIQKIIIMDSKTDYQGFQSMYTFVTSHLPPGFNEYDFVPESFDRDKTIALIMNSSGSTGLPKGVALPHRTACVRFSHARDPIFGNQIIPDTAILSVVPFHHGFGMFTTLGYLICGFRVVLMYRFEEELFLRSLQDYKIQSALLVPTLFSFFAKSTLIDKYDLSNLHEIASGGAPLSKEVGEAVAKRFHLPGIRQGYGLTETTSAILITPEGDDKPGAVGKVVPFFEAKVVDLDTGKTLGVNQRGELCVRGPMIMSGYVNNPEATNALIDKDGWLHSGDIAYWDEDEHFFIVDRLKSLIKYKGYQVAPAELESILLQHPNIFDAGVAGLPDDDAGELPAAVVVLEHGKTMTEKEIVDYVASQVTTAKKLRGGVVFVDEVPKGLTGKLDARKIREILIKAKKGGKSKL
Endoplasmic reticulum aminopeptidase 1, sequence (Q9NZ08 whole entry): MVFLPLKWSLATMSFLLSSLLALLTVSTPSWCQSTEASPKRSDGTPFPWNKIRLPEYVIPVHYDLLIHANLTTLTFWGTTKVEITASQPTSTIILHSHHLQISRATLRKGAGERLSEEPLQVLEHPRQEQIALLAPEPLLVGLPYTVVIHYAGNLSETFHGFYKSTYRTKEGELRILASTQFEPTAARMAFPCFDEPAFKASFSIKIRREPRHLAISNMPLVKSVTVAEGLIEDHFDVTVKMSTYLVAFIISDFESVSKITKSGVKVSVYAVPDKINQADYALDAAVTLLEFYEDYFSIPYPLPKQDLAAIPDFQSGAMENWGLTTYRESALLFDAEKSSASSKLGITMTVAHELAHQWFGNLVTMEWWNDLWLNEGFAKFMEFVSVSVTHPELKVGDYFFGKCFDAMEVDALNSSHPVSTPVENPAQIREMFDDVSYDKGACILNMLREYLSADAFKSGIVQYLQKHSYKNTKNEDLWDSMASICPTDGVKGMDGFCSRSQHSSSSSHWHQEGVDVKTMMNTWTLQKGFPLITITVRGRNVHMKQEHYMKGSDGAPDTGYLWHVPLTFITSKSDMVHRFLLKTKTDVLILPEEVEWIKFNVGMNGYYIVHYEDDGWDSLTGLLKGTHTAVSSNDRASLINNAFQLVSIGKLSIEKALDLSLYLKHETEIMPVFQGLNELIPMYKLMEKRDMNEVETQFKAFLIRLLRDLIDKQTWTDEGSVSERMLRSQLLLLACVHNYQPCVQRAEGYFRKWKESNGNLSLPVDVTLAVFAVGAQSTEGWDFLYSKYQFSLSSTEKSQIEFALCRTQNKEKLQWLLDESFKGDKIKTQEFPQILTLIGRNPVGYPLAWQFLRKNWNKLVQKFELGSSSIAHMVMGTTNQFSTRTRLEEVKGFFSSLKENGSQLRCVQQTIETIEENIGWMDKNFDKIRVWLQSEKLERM

O=C1CC(/C=C/c2ccccc2)=Nc2ccccc2N1
IC50 [1]: 48.1 µM (active)
IC50 [2]: 33.2 µM (active)
IC50 [3]: 6.55 µM (active)
IC50 (Caspase-3): 28.2 µM (active)

CC(=O)Oc1cccc(N2C(=O)c3cccc4c([N+](=O)[O-])ccc(c34)C2=O)c1
IC50 (CHO): 5.26 µM (active)
IC50 (Beta Lactamase): 4.5 µM (active)

COc1ccc(-c2cc3ccc(O)cc3oc2=O)cc1OC
IC50 (CHO): > 49.8 µM (inactive)
IC50 (Beta Lactamase): 5.23 µM (active)
EC50 [4]: 1.23 µM (active)
AC50 [5]: 3.21 µM (active)
EC50 [6]: 0.335 µM (active)

COc1ccc(-c2cn(CCC(=O)O)c(C)n2)cc1
IC50 [1]: 4.56 µM (active)
IC50 [2]: 4.89 µM (active)
IC50 [3]: 4.75 µM (active)
IC50 (Caspase-3): 40.7 µM (active)

CCNC(=O)CCc1nc(-c2ccccc2)no1
IC50 (HEK293): > 80 µM (inactive)

CCN(CC(=O)Nc1c(F)cccc1F)C(=O)Cc1ccsc1
IC50 [7]: > 100 µM (inactive)
